MIC data for eight compounds are collected here from ChEMBL document CHEMBL3425423, “Hydroxy tricyclic 1,5-naphthyridinone oxabicyclooctane-linked novel bacterial topoisomerase inhibitors as broad-spectrum antibacterial agents-SAR of RHS moiety (Part-3)” (Bioorg Med Chem Lett, 2015).

Values after ≈ are worked out from the molar mass of the structure shown.

Type in all cases: functional
The subject of one assay is Haemophilus influenzae. As to the kind of experiment: Antibacterial activity against Haemophilus influenzae ATCC 49247.
In another assay the test system is Pseudomonas aeruginosa. The experiment in a line: Antibacterial activity against Pseudomonas aeruginosa PAO1.
A further assay deals with Streptococcus pneumoniae. As to the kind of experiment: Antibacterial activity against Streptococcus pneumoniae IID554. The settings on record: Streptococcus pneumoniae, IID554; read-out: MIC.
The subject of another assay is Enterococcus faecium. As to the kind of experiment: Antibacterial activity against VanA-type vancomycin-resistant Enterococcus faecium A2373.
The subject of another assay is Moraxella catarrhalis. As to the kind of experiment: Antibacterial activity against Moraxella catarrhalis ATCC 25238.
A further assay deals with Acinetobacter baumannii. The experiment in a line: Antibacterial activity against Acinetobacter baumannii IID876.
The next assay deals with Enterococcus faecalis. The experiment in a line: Antibacterial activity against Enterococcus faecalis ATCC 29212.
A further assay relates to Staphylococcus aureus. As to the kind of experiment: Antibacterial activity against Staphylococcus aureus Smith. The settings on record: Staphylococcus aureus, Smith; read-out: MIC.
In the next assay the test system is Escherichia coli. The experiment in a line: Antibacterial activity against Escherichia coli ATCC 25922.
Where [1] appears, read: Haemophilus influenzae, ATCC 49247, read-out: MIC.
[2] abbreviates: Pseudomonas aeruginosa, PAO1, read-out: MIC.
The mark [3] stands for this setting: Enterococcus faecium, A2373, read-out: MIC.
[4] abbreviates: Moraxella catarrhalis, ATCC 25238, read-out: MIC.
Where [5] appears, read: Acinetobacter baumannii, IID876, read-out: MIC.
[6] abbreviates: Enterococcus faecalis, ATCC 29212, read-out: MIC.
Where [7] appears, read: Escherichia coli, ATCC 25922, read-out: MIC.

With `O=c1ccc2ncc(F)c3c2n1C[C@@]3(O)CC12CCC(NCc3c(Cl)cc4c(c3Cl)OCCO4)(CC1)CO2`, the MIC in the assay on Haemophilus influenzae (setting [1]) turned out to be 32 µg/mL (≈ 56.9 µM); in the assay on Pseudomonas aeruginosa (setting [2]), 32 µg/mL (≈ 56.9 µM); with Streptococcus pneumoniae it was 4 µg/mL (≈ 7.11 µM); in the assay on Enterococcus faecium (setting [3]), 32 µg/mL (≈ 56.9 µM); in the assay on Moraxella catarrhalis (setting [4]) it was 32 µg/mL (≈ 56.9 µM); in the assay on Acinetobacter baumannii (setting [5]), 32 µg/mL (≈ 56.9 µM). The MIC in the assay on Enterococcus faecalis (setting [6]) was determined as 16 µg/mL (≈ 28.4 µM); in the assay on Staphylococcus aureus it was 4 µg/mL (≈ 7.11 µM); in the assay with Escherichia coli (setting [7]), 32 µg/mL (≈ 56.9 µM).
With `O=c1ccc2ncc(F)c3c2n1C[C@@]3(O)CC12CCC(NCc3cc4c(nn3)OCCO4)(CC1)CO2`, the MIC came to 32 µg/mL (≈ 64.6 µM) in the assay with Haemophilus influenzae (setting [1]); 32 µg/mL (≈ 64.6 µM) in the assay with Pseudomonas aeruginosa (setting [2]); 2 µg/mL (≈ 4.04 µM) in the assay on Streptococcus pneumoniae; 32 µg/mL (≈ 64.6 µM) with Enterococcus faecium (setting [3]); 32 µg/mL (≈ 64.6 µM) in the assay with Moraxella catarrhalis (setting [4]); 32 µg/mL (≈ 64.6 µM) with Acinetobacter baumannii (setting [5]). Also, the MIC with Enterococcus faecalis (setting [6]) is 8 µg/mL (≈ 16.1 µM); with Staphylococcus aureus, 4 µg/mL (≈ 8.07 µM); with Escherichia coli (setting [7]), 32 µg/mL (≈ 64.6 µM).
Take `O=c1ccc2ncc(F)c3c2n1C[C@@]3(O)CC12CCC(NCc3cc4c(cc3Cl)OCCO4)(CC1)CO2`: the MIC is 32 µg/mL (≈ 60.6 µM) with Haemophilus influenzae (setting [1]); 32 µg/mL (≈ 60.6 µM) with Pseudomonas aeruginosa (setting [2]); 0.5 µg/mL (≈ 0.947 µM) in the assay on Streptococcus pneumoniae; 8 µg/mL (≈ 15.2 µM) with Enterococcus faecium (setting [3]); 0.5 µg/mL (≈ 0.947 µM) in the assay on Moraxella catarrhalis (setting [4]); 8 µg/mL (≈ 15.2 µM) in the assay with Acinetobacter baumannii (setting [5]). Besides, the MIC in the assay with Enterococcus faecalis (setting [6]) worked out at 4 µg/mL (≈ 7.58 µM); in the assay with Staphylococcus aureus, 0.25 µg/mL (≈ 0.474 µM); with Escherichia coli (setting [7]), 32 µg/mL (≈ 60.6 µM).
With `O=c1ccc2ncc(F)c3c2n1C[C@@]3(O)CC12CCC(NCc3ncc4c(n3)OCCO4)(CC1)CO2`, the MIC in the assay on Haemophilus influenzae (setting [1]) is 32 µg/mL (≈ 64.6 µM); in the assay with Pseudomonas aeruginosa (setting [2]), 32 µg/mL (≈ 64.6 µM); with Streptococcus pneumoniae, 4 µg/mL (≈ 8.07 µM); with Enterococcus faecium (setting [3]) it was 32 µg/mL (≈ 64.6 µM); in the assay on Moraxella catarrhalis (setting [4]), 32 µg/mL (≈ 64.6 µM); with Acinetobacter baumannii (setting [5]) it was 32 µg/mL (≈ 64.6 µM). The MIC is 32 µg/mL (≈ 64.6 µM) in the assay on Enterococcus faecalis (setting [6]), 8 µg/mL (≈ 16.1 µM) in the assay on Staphylococcus aureus and 32 µg/mL (≈ 64.6 µM) with Escherichia coli (setting [7]).
Take `O=C1COc2ccc(CNC34CCC(C[C@]5(O)Cn6c(=O)ccc7ncc(F)c5c76)(CC3)OC4)nc2N1`: the MIC with Haemophilus influenzae (setting [1]) amounted to 1 µg/mL (≈ 1.97 µM); in the assay on Pseudomonas aeruginosa (setting [2]) it was 16 µg/mL (≈ 31.5 µM); with Streptococcus pneumoniae it was 0.25 µg/mL (≈ 0.493 µM); with Enterococcus faecium (setting [3]), 8 µg/mL (≈ 15.8 µM); in the assay on Moraxella catarrhalis (setting [4]) it was 0.25 µg/mL (≈ 0.493 µM); in the assay with Acinetobacter baumannii (setting [5]), 2 µg/mL (≈ 3.94 µM). The figures for the MIC in the assay with Enterococcus faecalis (setting [6]), with Staphylococcus aureus and with Escherichia coli (setting [7]) were 4 µg/mL (≈ 7.88 µM), 0.25 µg/mL (≈ 0.493 µM) and 4 µg/mL (≈ 7.88 µM), respectively.
`CC1COc2cnc(CNC34CCC(C[C@]5(O)Cn6c(=O)ccc7ncc(F)c5c76)(CC3)OC4)cc2O1` (stereo in doubt; 22): the MIC stood at 32 µg/mL (≈ 62.9 µM) against Haemophilus influenzae; 32 µg/mL (≈ 62.9 µM) with Pseudomonas aeruginosa; 4 µg/mL (≈ 7.87 µM) in the assay with Streptococcus pneumoniae; 32 µg/mL (≈ 62.9 µM) against Enterococcus faecium; 32 µg/mL (≈ 62.9 µM) in the assay with Moraxella catarrhalis; 32 µg/mL (≈ 62.9 µM) against Acinetobacter baumannii. Besides, the MIC against Enterococcus faecalis was 32 µg/mL (≈ 62.9 µM); in the assay on Staphylococcus aureus it was 4 µg/mL (≈ 7.87 µM); in the assay with Escherichia coli, 32 µg/mL (≈ 62.9 µM).
In the case of `O=c1ccc2ncc(F)c3c2n1C[C@@]3(O)CC12CCC(NCc3cc4c(cn3)OCS4)(CC1)CO2`, the MIC was 4 µg/mL (≈ 8.06 µM) with Haemophilus influenzae (setting [1]); 32 µg/mL (≈ 64.4 µM) in the assay on Pseudomonas aeruginosa (setting [2]); 0.25 µg/mL (≈ 0.503 µM) in the assay on Streptococcus pneumoniae; 8 µg/mL (≈ 16.1 µM) with Enterococcus faecium (setting [3]); 0.5 µg/mL (≈ 1.01 µM) with Moraxella catarrhalis (setting [4]); 0.5 µg/mL (≈ 1.01 µM) in the assay on Acinetobacter baumannii (setting [5]). Further, the MIC in the assay with Enterococcus faecalis (setting [6]) was 2 µg/mL (≈ 4.03 µM); in the assay on Staphylococcus aureus, 0.25 µg/mL (≈ 0.503 µM); in the assay with Escherichia coli (setting [7]) it was 8 µg/mL (≈ 16.1 µM).
On to `O=c1ccc2ncc(F)c3c2n1C[C@@]3(O)CC12CCC(NCc3cc4c(cn3)OCCC4)(CC1)CO2`, for which the MIC in the assay with Haemophilus influenzae (setting [1]) turned out to be 4 µg/mL (≈ 8.12 µM); in the assay on Pseudomonas aeruginosa (setting [2]) it was 32 µg/mL (≈ 65 µM); in the assay on Streptococcus pneumoniae, 0.5 µg/mL (≈ 1.02 µM); with Enterococcus faecium (setting [3]), 16 µg/mL (≈ 32.5 µM); in the assay on Acinetobacter baumannii (setting [5]), 4 µg/mL (≈ 8.12 µM); in the assay on Enterococcus faecalis (setting [6]), 4 µg/mL (≈ 8.12 µM). The MIC with Staphylococcus aureus was 0.13 µg/mL (≈ 0.264 µM); in the assay on Escherichia coli (setting [7]), 16 µg/mL (≈ 32.5 µM).
